Laboratory results reported in PubChem BioAssay (NCI).
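GI50 marks 50% less growth. TGI: concentration producing complete growth inhibition.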

What was measured:
Assay in all cases: inhibition of tumour cell growth, NCI panel, 384-well format
HCT-116 colon = test system: HCT-116 colon
SK-MEL-5 melanoma = test system: SK-MEL-5 melanoma
NCI-H23 lung = test system: NCI-H23 lung
SN12C renal = test system: SN12C renal
SW-620 colon = test system: SW-620 colon
UACC-62 melanoma = test system: UACC-62 melanoma
HCC-2998 colon = test system: HCC-2998 colon
COLO 205 colon = test system: COLO 205 colon
DU-145 prostate = test system: DU-145 prostate
OVCAR-5 ovarian = test system: OVCAR-5 ovarian
NCI-H522 lung = test system: NCI-H522 lung
K-562 leukemia = test system: K-562 leukemia
RXF 393 renal = test system: RXF 393 renal
OVCAR-3 ovarian = test system: OVCAR-3 ovarian
MDA-MB-435 melanoma = test system: MDA-MB-435 melanoma
HL-60(TB) leukemia = test system: HL-60(TB) leukemia
MOLT-4 leukemia = test system: MOLT-4 leukemia
NCI-H460 NSCLC = test system: NCI-H460 NSCLC
NCI-H322M lung = test system: NCI-H322M lung
HCT-15 colon = test system: HCT-15 colon
SK-MEL-2 melanoma = test system: SK-MEL-2 melanoma
BT-549 breast = test system: BT-549 breast
MCF7 breast = test system: MCF7 breast
TK-10 renal = test system: TK-10 renal
SK-OV-3 ovarian = test system: SK-OV-3 ovarian
KM12 colon = test system: KM12 colon
MDA-MB-231 breast = test system: MDA-MB-231 breast
IGROV1 ovarian = test system: IGROV1 ovarian
MALME-3M melanoma = test system: MALME-3M melanoma
U251 glioblastoma = test system: U251 glioblastoma
LOX IMVI melanoma = test system: LOX IMVI melanoma
A498 renal = test system: A498 renal
OVCAR-4 ovarian = test system: OVCAR-4 ovarian
T-47D breast = test system: T-47D breast
SR leukemia = test system: SR leukemia
NCI/ADR-RES ovarian = test system: NCI/ADR-RES ovarian
PC-3 prostate = test system: PC-3 prostate
CCRF-CEM leukemia = test system: CCRF-CEM leukemia
RPMI-8226 leukemia = test system: RPMI-8226 leukemia
UACC-257 melanoma = test system: UACC-257 melanoma
SF-539 CNS = test system: SF-539 CNS
M14 melanoma = test system: M14 melanoma
CAKI-1 renal = test system: CAKI-1 renal
NCI-H226 lung = test system: NCI-H226 lung
A549 NSCLC = test system: A549 NSCLC
SK-MEL-28 melanoma = test system: SK-MEL-28 melanoma
HOP-92 NSCLC = test system: HOP-92 NSCLC
SNB-19 CNS = test system: SNB-19 CNS
OVCAR-8 ovarian = test system: OVCAR-8 ovarian
HOP-62 NSCLC = test system: HOP-62 NSCLC
786-0 renal = test system: 786-0 renal
SF-268 CNS = test system: SF-268 CNS
MDA-MB-468 breast = test system: MDA-MB-468 breast
HT29 colon = test system: HT29 colon
ACHN renal = test system: ACHN renal
SF-295 CNS = test system: SF-295 CNS
UO-31 renal = test system: UO-31 renal

COCCNCc1ccc(-c2cc3nccc(Oc4ccc(NC(=S)NC(=O)Cc5ccc(F)cc5)cc4F)c3s2)nc1
GI50 (HCT-116 colon): 1.28 µM
TGI (HCT-116 colon): 2.56 µM
GI50 (SK-MEL-5 melanoma): 1.26 µM
TGI (SK-MEL-5 melanoma): 2.52 µM
GI50 (NCI-H23 lung): 0.486 µM
TGI (NCI-H23 lung): 2.2 µM
GI50 (SN12C renal): 1.14 µM
TGI (SN12C renal): 2.35 µM
GI50 (SW-620 colon): 1.55 µM
TGI (SW-620 colon): 2.92 µM
GI50 (UACC-62 melanoma): 1.52 µM
TGI (UACC-62 melanoma): 2.86 µM
GI50 (HCC-2998 colon): 1.85 µM
TGI (HCC-2998 colon): 3.26 µM
GI50 (COLO 205 colon): 1.61 µM
TGI (COLO 205 colon): 2.98 µM
GI50 (DU-145 prostate): 1.86 µM
TGI (DU-145 prostate): 3.29 µM
GI50 (OVCAR-5 ovarian): 1.94 µM
TGI (OVCAR-5 ovarian): 3.38 µM
GI50 (NCI-H522 lung): 1.67 µM
TGI (NCI-H522 lung): 3.03 µM
GI50 (K-562 leukemia): 0.177 µM
TGI (K-562 leukemia): 0.343 µM
GI50 (RXF 393 renal): 1.59 µM
TGI (RXF 393 renal): 2.94 µM
GI50 (OVCAR-3 ovarian): 1.89 µM
TGI (OVCAR-3 ovarian): 3.31 µM
GI50 (MDA-MB-435 melanoma): 1.86 µM
TGI (MDA-MB-435 melanoma): 3.27 µM
GI50 (HL-60(TB) leukemia): 0.621 µM
TGI (HL-60(TB) leukemia): 1.75 µM
GI50 (MOLT-4 leukemia): 0.582 µM
TGI (MOLT-4 leukemia): 1.78 µM
GI50 (NCI-H460 NSCLC): 1.42 µM
TGI (NCI-H460 NSCLC): 2.75 µM
GI50 (NCI-H322M lung): 1.7 µM
TGI (NCI-H322M lung): 3.09 µM
GI50 (HCT-15 colon): 1.71 µM
TGI (HCT-15 colon): 3.11 µM
GI50 (SK-MEL-2 melanoma): 1.96 µM
TGI (SK-MEL-2 melanoma): 3.38 µM
GI50 (BT-549 breast): 1.6 µM
TGI (BT-549 breast): 2.95 µM
GI50 (MCF7 breast): 1.48 µM
TGI (MCF7 breast): 2.81 µM
GI50 (TK-10 renal): 1.78 µM
TGI (TK-10 renal): 3.17 µM
GI50 (SK-OV-3 ovarian): 1.55 µM
TGI (SK-OV-3 ovarian): 2.89 µM
GI50 (KM12 colon): 0.385 µM
TGI (KM12 colon): 1.44 µM
GI50 (MDA-MB-231 breast): 1.44 µM
TGI (MDA-MB-231 breast): 2.76 µM
GI50 (IGROV1 ovarian): 1.64 µM
TGI (IGROV1 ovarian): 3.54 µM
GI50 (MALME-3M melanoma): 1.54 µM
TGI (MALME-3M melanoma): 2.89 µM
GI50 (U251 glioblastoma): 1.3 µM
TGI (U251 glioblastoma): 2.58 µM
GI50 (LOX IMVI melanoma): 2.02 µM
TGI (LOX IMVI melanoma): 3.46 µM
GI50 (A498 renal): 1.56 µM
TGI (A498 renal): 2.9 µM
GI50 (OVCAR-4 ovarian): 1.09 µM
TGI (OVCAR-4 ovarian): 2.3 µM
GI50 (T-47D breast): 1.48 µM
TGI (T-47D breast): 2.81 µM
GI50 (SR leukemia): 0.187 µM
TGI (SR leukemia): 0.33 µM
GI50 (NCI/ADR-RES ovarian): 1.58 µM
TGI (NCI/ADR-RES ovarian): 2.93 µM
GI50 (PC-3 prostate): 1.81 µM
TGI (PC-3 prostate): 3.21 µM
GI50 (CCRF-CEM leukemia): 0.868 µM
TGI (CCRF-CEM leukemia): 2.07 µM
GI50 (RPMI-8226 leukemia): 0.614 µM
TGI (RPMI-8226 leukemia): 1.82 µM
GI50 (UACC-257 melanoma): 1.09 µM
TGI (UACC-257 melanoma): 2.29 µM
GI50 (SF-539 CNS): 0.969 µM
TGI (SF-539 CNS): 2.15 µM
GI50 (M14 melanoma): 1.58 µM
TGI (M14 melanoma): 2.94 µM
GI50 (CAKI-1 renal): 1.52 µM
TGI (CAKI-1 renal): 2.86 µM
GI50 (NCI-H226 lung): 1.95 µM
TGI (NCI-H226 lung): 3.62 µM
GI50 (A549 NSCLC): 1.68 µM
TGI (A549 NSCLC): 3.07 µM
GI50 (SK-MEL-28 melanoma): 1.5 µM
TGI (SK-MEL-28 melanoma): 2.83 µM
GI50 (HOP-92 NSCLC): 1.26 µM
TGI (HOP-92 NSCLC): 2.52 µM
GI50 (SNB-19 CNS): 1.78 µM
TGI (SNB-19 CNS): 3.19 µM
GI50 (OVCAR-8 ovarian): 1.42 µM
TGI (OVCAR-8 ovarian): 2.74 µM
GI50 (HOP-62 NSCLC): 1.93 µM
TGI (HOP-62 NSCLC): 3.35 µM
GI50 ([…]-0 renal): 1.48 µM
TGI (786-0 renal): 2.82 µM
GI50 (SF-268 CNS): 1.57 µM
TGI (SF-268 CNS): 2.92 µM
GI50 (MDA-MB-468 breast): 1.85 µM
TGI (MDA-MB-468 breast): 3.25 µM
GI50 (HT29 colon): 1.16 µM
TGI (HT29 colon): 2.41 µM
GI50 (ACHN renal): 1.72 µM
TGI (ACHN renal): 3.11 µM
GI50 (SF-295 CNS): 0.875 µM
TGI (SF-295 CNS): 2.11 µM
GI50 (UO-31 renal): 1.6 µM
TGI (UO-31 renal): 2.95 µM
